These results are taken from patent publication US20160046618A1, “Cyclopropyl Fused Thiazin-2-Amine Compounds as Beta-Secretase Inhibitors and Methods of Use” (AMGEN INC., priority 2014, published 2016).

The target in one test is human recombinant BACE2 (Homo sapiens (Human), UniProt Q9Y5Z0). Description: In vitro enzymatic BACE2 FRET assay. In kind it is biochemical. To be noted: read-out: IC50 IP (μM) BACE2 enzyme. The essentials: (§1)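 FRET cleavage assay using Ni-NTA-purified recombinant protease and 50 nM quenched peptide substrate, 1 h. Stopped by neutralising with Tris; fluorescence at 488/590 nm.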

The subject of test [1] is Aβ40 in conditioned medium of cells stably expressing Amyloid Precursor Protein (APP). In words: In vitro BACE-1 cell-based assay (Aβ40 sandwich ELISA). To be noted: read-out: IC50 IP (μM) BACE1 cell. The essentials: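 APP-stable cells, pre-cultured 24 h at 37° C in DMEM/10% FBS, were treated 24 h with compound in a 10-point series starting at 100 μM or 10 μM (0.1% DMSO final). Secreted Aβ40 in conditioned medium was measured by pAb40/biotin-6E10 sandwich ELISA with Europium time-resolved fluorescence; IC50 from percent inhibition versus concentration.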
For orientation: ELISA stands for enzyme-linked immunosorbent assay.

A further test deals with human recombinant BACE1 (Homo sapiens (Human), UniProt P56817). In words: In vitro enzymatic BACE1 FRET assay. The test is classed as biochemical. To be noted: read-out: IC50 IP (μM) BACE1 enzyme. The essentials:
as §1

The next test addresses Recombinant Cat D (Homo sapiens (Human), UniProt P07339). In words: In vitro enzymatic Cathepsin D (Cat D) FRET assay. In kind it is biochemical. To be noted: read-out: IC50 IP (μM) CatD. The gist of the method: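 Cleavage of a 20 nM FRET peptide by CHO-derived Cat D over 1 h at pH 3.5 (citrate buffer with CHAPS, 10% DMSO final). Endpoint fluorescence is read after Tris quench.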

In general, IC50 refers to the concentration needed to halve the response being measured.

Structures are written as SMILES. Read-outs that look alike come from different tables or passages of the source. Where only a bound is given, the exact number is not on record here.

Sequence of human recombinant BACE2 (Q9Y5Z0 63-518): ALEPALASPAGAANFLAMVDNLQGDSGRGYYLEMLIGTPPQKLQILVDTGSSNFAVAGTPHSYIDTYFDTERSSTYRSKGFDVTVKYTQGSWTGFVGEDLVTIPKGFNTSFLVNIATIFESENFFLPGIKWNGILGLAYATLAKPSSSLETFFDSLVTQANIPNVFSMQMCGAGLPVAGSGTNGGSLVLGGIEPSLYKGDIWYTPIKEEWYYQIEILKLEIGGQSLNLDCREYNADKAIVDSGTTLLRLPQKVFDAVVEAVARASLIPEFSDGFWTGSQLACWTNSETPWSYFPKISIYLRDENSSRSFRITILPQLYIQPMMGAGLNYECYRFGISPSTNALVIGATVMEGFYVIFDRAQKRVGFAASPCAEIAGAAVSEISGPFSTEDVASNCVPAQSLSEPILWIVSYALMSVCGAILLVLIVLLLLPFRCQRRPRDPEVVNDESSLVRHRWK
Sequence of human recombinant BACE1 (P56817 46-501): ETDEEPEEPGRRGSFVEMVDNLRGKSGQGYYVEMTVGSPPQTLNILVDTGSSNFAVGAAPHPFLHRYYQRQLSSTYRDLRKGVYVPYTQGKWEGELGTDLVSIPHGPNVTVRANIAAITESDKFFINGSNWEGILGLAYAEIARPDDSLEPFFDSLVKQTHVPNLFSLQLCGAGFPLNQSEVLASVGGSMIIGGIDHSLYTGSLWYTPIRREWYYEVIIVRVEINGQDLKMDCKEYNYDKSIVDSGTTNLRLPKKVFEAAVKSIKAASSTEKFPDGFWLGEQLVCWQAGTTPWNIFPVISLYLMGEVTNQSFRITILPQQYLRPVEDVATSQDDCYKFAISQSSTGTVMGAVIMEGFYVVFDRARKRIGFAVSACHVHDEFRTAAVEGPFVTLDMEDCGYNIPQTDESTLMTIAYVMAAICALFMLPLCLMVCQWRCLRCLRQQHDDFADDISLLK
Sequence of Recombinant Cat D (P07339 65-412): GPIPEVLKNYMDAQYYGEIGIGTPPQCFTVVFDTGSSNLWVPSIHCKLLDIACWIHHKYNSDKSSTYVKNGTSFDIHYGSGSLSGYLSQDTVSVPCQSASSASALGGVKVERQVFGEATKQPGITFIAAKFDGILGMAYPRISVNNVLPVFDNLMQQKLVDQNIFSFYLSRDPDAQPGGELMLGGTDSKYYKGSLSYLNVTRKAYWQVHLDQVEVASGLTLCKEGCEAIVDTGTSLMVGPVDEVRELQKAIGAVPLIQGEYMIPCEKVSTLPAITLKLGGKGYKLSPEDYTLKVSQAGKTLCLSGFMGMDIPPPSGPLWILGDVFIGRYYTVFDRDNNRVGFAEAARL

For `COc1ncc(Nc2nccc3nc(OCc4ncco4)cnc23)cc1[C@@]1(C)N=C(N)S[C@@]2(CF)C[C@H]21` [Example 626, N-(5-((1S,5S,6S)-3-amino-1-(fluoromethyl)-5-methyl-2-thia-4-azabicyclo[4.1.0]hept-3-en-5-yl)-6-methoxy-3-pyridinyl)-2-(1,3-oxazol-2-ylmethoxy)pyrido[3,4-b]pyrazin-5-amine], the IC50 amounted to 0.2 µM on human recombinant BACE2, 0.00509 µM in test [1], 0.0164 µM at human recombinant BACE1 and 1080 µM on Recombinant Cat D.

With `COC[C@]12C[C@H]1[C@@](C)(c1cc(NC(=O)c3cnc(O[C@@H](C)C(F)(F)F)cn3)ccc1F)N=C(N)S2` (single isomer, unassigned) [Example 995], the 50% inhibitory concentration (IC50) at human recombinant BACE2 was found to be 1.77 µM; in test [1] it was 0.164 µM; on human recombinant BACE1 it was 0.101 µM; at Recombinant Cat D it was 1940 µM.

Consider `C#CCOc1cnc(C(=O)Nc2cnc(OC)c([C@@]3(C)N=C(N)S[C@@]4(C#N)C[C@H]43)c2)cn1` [Example 964, N-(5-((1S,5S,6S)-3-amino-1-cyano-5-methyl-2-thia-4-azabicyclo[4.1.0]hept-3-en-5-yl)-6-methoxy-3-pyridinyl)-5-(2-propyn-1-yloxy)-2-pyrazinecarboxamide], for which the IC50 at human recombinant BACE2 amounted to 0.00887 µM; in test [1], 0.00154 µM; on human recombinant BACE1 it was 0.000737 µM; at Recombinant Cat D it was 98.9 µM.

Turning to `C[C@]1(c2cc(NC(=O)c3cnc(OCc4ncco4)cn3)cc(F)c2F)N=C(N)S[C@@]2(CF)C[C@H]21` [Example 811, N-(3-((1S,5S,6S)-3-amino-1-(fluoromethyl)-5-methyl-2-thia-4-azabicyclo[4.1.0]hept-3-en-5-yl)-4,5-difluorophenyl)-5-(1,3-oxazol-2-ylmethoxy)-2-pyrazinecarboxamide], the IC50 is 0.0207 µM on human recombinant BACE2, 0.00126 µM in test [1], 0.000676 µM at human recombinant BACE1 and 297 µM at Recombinant Cat D.

With `COC[C@]12C[C@H]1[C@@](C)(c1cc(NC(=O)c3cnc(OCC4(C)CC4)cn3)ccc1F)N=C(N)S2` [Example 1049, N-(3-((1S,5S,6S)-3-amino-1-(methoxymethyl)-5-methyl-2-thia-4-azabicyclo[4.1.0]hept-3-en-5-yl)-4-fluorophenyl)-5-((1-methylcyclopropyl)methoxy)-2-pyrazinecarboxamide], the IC50 at human recombinant BACE2 is 0.18 µM; in test [1], 0.0035 µM; on human recombinant BACE1, 0.0054 µM; on Recombinant Cat D, more than 400 µM.

As to `C/C(=C/[C@]12C[C@H]1[C@@](CF)(c1cc(NC(=O)c3ccc(Cl)cn3)ccc1F)N=C(N)S2)C(=O)N1CCOCC1` [Example 777, N-(3-((1R,5S,6S)-3-amino-5-(fluoromethyl)-1-((Z)-2-methyl-3-morpholino-3-oxoprop-1-en-1-yl)-2-thia-4-azabicyclo[4.1.0]hept-3-en-5-yl)-4-fluorophenyl)-5-chloropicolinamide], the IC50 at human recombinant BACE2 was less than 0.00203 µM; in test [1] it was 0.000416 µM; at human recombinant BACE1, 0.000274 µM; at Recombinant Cat D it was 834 µM.

Regarding `COC[C@]12C[C@H]1[C@@](C)(c1cc(Nc3nccc4nc(OCc5nc(C)no5)cnc34)cc(F)c1F)N=C(N)S2` [Example 882, N-(3-((1S,5S,6S)-3-amino-1-(methoxymethyl)-5-methyl-2-thia-4-azabicyclo[4.1.0]hept-3-en-5-yl)-4,5-difluorophenyl)-2-((3-methyl-1,2,4-oxadiazol-5-yl)methoxy)pyrido[3,4-b]pyrazin-5-amine], the concentration for half-maximal inhibition (IC50) on human recombinant BACE2 turned out to be 0.381 µM; in test [1] it was 0.0204 µM; on human recombinant BACE1, 0.00778 µM; on Recombinant Cat D it was 911 µM.

For the compound `COC[C@]12C[C@H]1[C@@](C)(c1cc(Nc3nccc4nc(OCc5noc(C)n5)cnc34)cc(F)c1F)N=C(N)S2` [Example 885, N-(3-((1S,5S,6S)-3-amino-1-(methoxymethyl)-5-methyl-2-thia-4-azabicyclo[4.1.0]hept-3-en-5-yl)-4,5-difluorophenyl)-2-((5-methyl-1,2,4-oxadiazol-3-yl)methoxy)pyrido[3,4-b]pyrazin-5-amine], the IC50 on human recombinant BACE2 came to 0.143 µM; in test [1], 0.00823 µM; at human recombinant BACE1, 0.00223 µM; at Recombinant Cat D, 592 µM.

Consider `CC(C)Oc1cnc2c(Nc3cc(F)c(F)c([C@@]4(CF)N=C(N)S[C@H]5C[C@H]54)c3)nccc2n1` [Example 63, N-(3-((1S,5S,6S)-3-amino-5-(fluoromethyl)-2-thia-4-azabicyclo[4.1.0]hept-3-en-5-yl)-4,5-difluorophenyl)-2-(1-methylethoxy)pyrido[3,4-b]pyrazin-5-amine], for which the IC50 at human recombinant BACE2 (BACE2 FRET enzyme assay) was determined as 3.75 µM; in test [1] (BACE1 cell-based assay) it was 4.65 µM; on human recombinant BACE1 (BACE1 FRET enzyme assay) it was 0.137 µM; on Recombinant Cat D (Cathepsin D FRET enzyme assay), 494 µM.

With `C[C@]1(c2cc(Nc3ncc(F)c4cc(OCc5ncco5)cnc34)cc(F)c2F)N=C(N)S[C@@]2(C(F)F)C[C@@H]12` [Example 949, N-(3-((1S,5S,6S)-3-amino-1-(difluoromethyl)-5-methyl-2-thia-4-azabicyclo[4.1.0]hept-3-en-5-yl)-4,5-difluorophenyl)-5-fluoro-3-(1,3-oxazol-2-ylmethoxy)-1,7-naphthyridin-8-amine], the half-maximal inhibitory concentration (IC50) came out at 0.0588 µM at human recombinant BACE2, 0.0841 µM in test [1], 0.00245 µM at human recombinant BACE1 and 336 µM at Recombinant Cat D.

In the case of `COC[C@]12C[C@H]1[C@@](C)(c1cc(Nc3ncnc4cc(OC)cnc34)cc(F)c1F)N=C(N)S2` [Example 65, N-(3-((1S,5S,6S)-3-amino-1-(methoxymethyl)-5-methyl-2-thia-4-azabicyclo[4.1.0]hept-3-en-5-yl)-4,5-difluorophenyl)-7-methoxypyrido[3,2-d]pyrimidin-4-amine], the 50% inhibitory concentration (IC50) at human recombinant BACE2 (BACE2 FRET enzyme assay) worked out at 0.0836 µM; in test [1] (BACE1 cell-based assay), 0.00781 µM; on human recombinant BACE1 (BACE1 FRET enzyme assay), 0.0133 µM; on Recombinant Cat D (Cathepsin D FRET enzyme assay), 1230 µM.

`COC[C@@]12C[C@@H]1[C@@](CF)(c1cc(NC(=O)c3ccc(Cl)cn3)cc(F)c1F)N=C(N)S2` [Example 96, N-(3-((1R,5S,6R)-3-amino-5-(fluoromethyl)-1-(methoxymethyl)-2-thia-4-azabicyclo[4.1.0]hept-3-en-5-yl)-4,5-difluorophenyl)-5-chloro-2-pyridinecarboxamide]: the IC50 was determined as 0.0024 µM at human recombinant BACE2 (BACE2 FRET enzyme assay), 0.0174 µM in test [1] (BACE1 cell-based assay), 0.00726 µM at human recombinant BACE1 (BACE1 FRET enzyme assay) and 40.4 µM on Recombinant Cat D (Cathepsin D FRET enzyme assay).

As for `C#CCOc1cnc(C(=O)Nc2ccc(F)c([C@@]3(C)N=C(N)S[C@@]4(COC)C[C@H]43)c2)c(C)n1` [Example 832, N-(3-((1S,5S,6S)-3-amino-1-(methoxymethyl)-5-methyl-2-thia-4-azabicyclo[4.1.0]hept-3-en-5-yl)-4-fluorophenyl)-3-methyl-5-(2-propyn-1-yloxy)-2-pyrazinecarboxamide], the IC50 on human recombinant BACE2 worked out at 0.013 µM; in test [1] it was 0.00213 µM; on human recombinant BACE1, 0.00299 µM; on Recombinant Cat D it was 778 µM.

For the compound `C[C@]1(c2cc(Nc3nccc4nc(OCCCF)cnc34)cc(F)c2F)N=C(N)S[C@@]2(C(F)F)C[C@@H]12` [Example 871, N-(3-((1S,5S,6S)-3-amino-1-(difluoromethyl)-5-methyl-2-thia-4-azabicyclo[4.1.0]hept-3-en-5-yl)-4,5-difluorophenyl)-2-(3-fluoropropoxy)pyrido[3,4-b]pyrazin-5-amine], the IC50 on human recombinant BACE2 is 0.517 µM; in test [1] it was 1.17 µM; on human recombinant BACE1, 0.0183 µM; on Recombinant Cat D it was 352 µM.

Turning to `NC1=N[C@](CF)(c2cc(NC(=O)c3ccc(Cl)cn3)ccc2F)[C@@H]2C[C@]2(/C=C/C(=O)N2CC(F)(F)C2)S1` [Example 772, N-(3-((1R,5S,6S)-3-amino-1-((1E)-3-(3,3-difluoro-1-azetidinyl)-3-oxo-1-propen-1-yl)-5-(fluoromethyl)-2-thia-4-azabicyclo[4.1.0]hept-3-en-5-yl)-4-fluorophenyl)-5-chloro-2-pyridinecarboxamide], the concentration for half-maximal inhibition (IC50) on human recombinant BACE2 is less than 0.00203 µM; in test [1], 0.000972 µM; at human recombinant BACE1, 0.000429 µM; on Recombinant Cat D, 82 µM.

In the case of `C[C@]1(c2cc(Nc3ncnc4cc(C#N)cnc34)cnc2F)N=C(N)S[C@@]2(C(F)F)C[C@@H]12` [Example 658, 4-((5-((1S,5S,6S)-3-amino-1-(difluoromethyl)-5-methyl-2-thia-4-azabicyclo[4.1.0]hept-3-en-5-yl)-6-fluoro-3-pyridinyl)amino)pyrido[3,2-d]pyrimidine-7-carbonitrile], the IC50 came out at 0.0293 µM at human recombinant BACE2, 0.0136 µM in test [1], 0.0107 µM on human recombinant BACE1 and 705 µM at Recombinant Cat D.

On to `C#CCOc1ccc(C(=O)Nc2ccc(F)c([C@@]3(CF)N=C(N)S[C@@]4(c5ccon5)C[C@@H]34)c2)nc1` [Example 793, N-(3-((1S,5S,6S)-3-amino-5-(fluoromethyl)-1-(3-isoxazolyl)-2-thia-4-azabicyclo[4.1.0]hept-3-en-5-yl)-4-fluorophenyl)-5-(2-propyn-1-yloxy)-2-pyridinecarboxamide], for which the IC50 is 0.00477 µM on human recombinant BACE2, 0.0153 µM in test [1], 0.000293 µM on human recombinant BACE1 and 482 µM on Recombinant Cat D.
